This passage reports inhibition results from patent publication US9567302B2, “Carbamate compounds and of making and using same” (Abide Therapeutics, Inc., priority 2012, dated 2017).

Holding throughout (format): biochemical
What all share (set-up): from tissue

One assay addresses T1, MAGL (Mus musculus, UniProt O35678).
T1 sequence (O35678 1-303): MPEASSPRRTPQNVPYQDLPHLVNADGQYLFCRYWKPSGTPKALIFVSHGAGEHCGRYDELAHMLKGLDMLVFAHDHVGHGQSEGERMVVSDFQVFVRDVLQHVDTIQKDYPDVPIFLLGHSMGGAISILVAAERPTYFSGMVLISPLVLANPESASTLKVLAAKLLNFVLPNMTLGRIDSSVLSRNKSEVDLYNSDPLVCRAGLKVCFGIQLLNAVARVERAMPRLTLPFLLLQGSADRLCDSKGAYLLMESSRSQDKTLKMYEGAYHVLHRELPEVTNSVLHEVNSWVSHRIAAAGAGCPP
In words: In vitro competitive ABPP, % inhibition at fixed concentration, MAGL. How it is done:
(§1) In Vitro Competitive Activity-Based Protein Profiling.
(§2) Proteomes (mouse brain membrane fraction or cell lysates) (50 μL, 1.0 mg/ml total protein concentration) were preincubated with varying concentrations of inhibitors at 37° C. After 30 min, FP-Rh (1.0 μL, 50 μM in DMSO) was added and the mixture was incubated for another 30 min at 37° C. Reactions were quenched with SDS loading buffer (50 μL—4×) and run on SDS-PAGE. Following gel imaging, serine hydrolase activity was determined by measuring fluorescent intensity of gel bands corresponding to MAGL, ABHD6 and FAAH using ImageJ 1.43u software.

In the next assay the target is T2, ABHD6 (Mus musculus, UniProt Q8R2Y0).
T2 sequence (Q8R2Y0 1-336): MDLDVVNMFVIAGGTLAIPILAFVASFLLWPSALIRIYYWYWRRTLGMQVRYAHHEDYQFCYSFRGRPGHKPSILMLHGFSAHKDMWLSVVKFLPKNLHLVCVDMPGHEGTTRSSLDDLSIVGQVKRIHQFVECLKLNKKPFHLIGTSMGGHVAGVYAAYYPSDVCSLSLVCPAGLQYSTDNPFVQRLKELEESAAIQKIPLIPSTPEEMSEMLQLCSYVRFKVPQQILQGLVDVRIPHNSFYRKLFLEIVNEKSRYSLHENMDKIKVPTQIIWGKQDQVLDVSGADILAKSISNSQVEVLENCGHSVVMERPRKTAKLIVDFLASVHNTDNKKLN
As to the kind of experiment: In vitro competitive ABPP, % inhibition at fixed concentration, ABHD6. How it is done: as §1, §2

In the next assay the target is T3, FAAH (Mus musculus, UniProt O08914).
T3 sequence (O08914 1-579): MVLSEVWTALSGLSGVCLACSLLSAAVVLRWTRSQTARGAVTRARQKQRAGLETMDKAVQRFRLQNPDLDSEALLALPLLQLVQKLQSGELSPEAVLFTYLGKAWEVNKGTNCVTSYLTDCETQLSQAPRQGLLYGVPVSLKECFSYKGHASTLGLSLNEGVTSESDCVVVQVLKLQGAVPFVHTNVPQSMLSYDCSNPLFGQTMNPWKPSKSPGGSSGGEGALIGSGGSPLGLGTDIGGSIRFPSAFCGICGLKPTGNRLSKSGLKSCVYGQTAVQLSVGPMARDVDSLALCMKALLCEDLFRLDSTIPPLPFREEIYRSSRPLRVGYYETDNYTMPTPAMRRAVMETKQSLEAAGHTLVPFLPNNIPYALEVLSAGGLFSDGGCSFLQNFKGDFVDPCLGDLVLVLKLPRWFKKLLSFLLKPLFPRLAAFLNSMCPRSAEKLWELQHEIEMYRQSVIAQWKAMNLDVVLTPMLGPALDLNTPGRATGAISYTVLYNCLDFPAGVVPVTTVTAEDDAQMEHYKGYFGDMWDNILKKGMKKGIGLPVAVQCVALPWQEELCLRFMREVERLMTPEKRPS
As to the kind of experiment: In vitro competitive ABPP, % inhibition at fixed concentration, FAAH. How it is done: as §1, §2

The term inhibition denotes the drop in the measured response relative to a control, in per cent. A higher inhibition goes with strong suppression. With `Cc1cccc(-c2ccc(CN3CCN(C(=O)ON4C(=O)CCC4=O)CC3)c(F)c2)n1` [Example 175, 2,5-Dioxopyrrolidin-1-yl 4-{[2-fluoro-4-(6-methylpyridin-2-yl)phenyl]methyl}piperazine-1-carboxylate], the inhibition at 1 µM on MAGL is 25 to 75%; on ABHD6, 25 to 75%; at FAAH it was less than 25%.

Turning to `C[C@@H]1CN(Cc2ccc(N3CCOCC3)cc2F)CCN1C(=O)ON1C(=O)CCC1=O` [Example 79, 2,5-Dioxopyrrolidin-1-yl (2R)-4-{[2-fluoro-4-(morpholin-4-yl)phenyl]methyl}-2-methylpiperazine-1-carboxylate], the inhibition at 1 µM on MAGL, on ABHD6 and on FAAH was less than 25% throughout.

As to `O=C(ON1C(=O)CCC1=O)N1CCN(Cc2c(Cl)cccc2N2CCOCC2)CC1` [Example 81, 2,5-Dioxopyrrolidin-1-yl 4-{[2-chloro-6-(morpholin-4-yl)phenyl]methyl}piperazine-1-carboxylate], the inhibition at 1 µM at MAGL is less than 25%; on ABHD6 it was 25 to 75%; at FAAH it was less than 25%.

In the case of `CS(=O)(=O)N1CCN(c2cc(Cl)ccc2CN2CCN(C(=O)ON3C(=O)CCC3=O)CC2)CC1` [Example 110, 2,5-Dioxopyrrolidin-1-yl 4-{[4-chloro-2-(4-methanesulfonylpiperazin-1-yl)phenyl]methyl}piperazine-1-carboxylate], the inhibition at 1 µM on MAGL was 25 to 75%; on ABHD6, 25 to 75%; at FAAH, less than 25%.

In the case of `O=C(ON1C(=O)CCC1=O)N1CCN(C(c2ccc3c(c2)OC(F)(F)O3)c2ccc3c(c2)OC(F)(F)O3)CC1` [Example 150, 2,5-Dioxopyrrolidin-1-yl 4-[bis(2,2-difluoro-2H-1,3-benzodioxol-5-yl)methyl]piperazine-1-carboxylate], the inhibition at 10 µM on MAGL was greater than 75%; at ABHD6 it was 25 to 75%; at FAAH, less than 25%.

On to `O=C(ON1C(=O)CCC1=O)N1CCC(N2CCCC2=O)CC1` [Example 219, 2,5-Dioxopyrrolidin-1-yl 4-(2-oxopyrrolidin-1-yl)piperidine-1-carboxylate], for which the inhibition at 10 µM at MAGL was less than 25%; at ABHD6 it was 25 to 75%; on FAAH, less than 25%.

Regarding `O=C(ON1C(=O)CCC1=O)N1CCN(Cc2cccc(Cl)c2C(=O)N2CCOCC2)CC1` [Example 198, 2,5-Dioxopyrrolidin-1-yl 4-{[3-chloro-2-(morpholine-4-carbonyl)phenyl]methyl}piperazine-1-carboxylate], the inhibition at 1 µM on MAGL, on ABHD6 and at FAAH was less than 25% in each case.

On to `Cc1ncccc1-c1ccc(CN2CCN(C(=O)ON3C(=O)CCC3=O)CC2)c(F)c1` [Example 174, 2,5-Dioxopyrrolidin-1-yl 4-{[2-fluoro-4-(2-methylpyridin-3-yl)phenyl]methyl}piperazine-1-carboxylate], for which the inhibition at 1 µM was 25 to 75% on MAGL, 25 to 75% at ABHD6 and less than 25% at FAAH.

On to `O=C(ON1C(=O)CCC1=O)N1CCN(Cc2cccc(Cl)c2C(=O)N2CCCC2)CC1` [Example 190, 2,5-Dioxopyrrolidin-1-yl 4-{[3-chloro-2-(pyrrolidine-1-carbonyl)phenyl]methyl}piperazine-1-carboxylate], for which the inhibition at 1 µM is 25 to 75% on MAGL, less than 25% at ABHD6 and less than 25% on FAAH.

Consider `COc1cc(-c2ccccc2)ccc1CN1CCN(C(=O)ON2C(=O)CCC2=O)CC1` [Example 167, 2,5-Dioxopyrrolidin-1-yl 4-[(2-methoxy-4-phenylphenyl)methyl]piperazine-1-carboxylate], for which the results for the inhibition at 1 µM at MAGL, on ABHD6 and on FAAH were greater than 75%, 25 to 75% and less than 25%, respectively.

In the case of `Cc1cc(-c2ccncc2C)ccc1CN1CCN(C(=O)ON2C(=O)CCC2=O)CC1` [Example 171, 2,5-Dioxopyrrolidin-1-yl 4-{[2-methyl-4-(3-methylpyridin-4-yl)phenyl]methyl}piperazine-1-carboxylate], the inhibition at 1 µM is 25 to 75% at MAGL, 25 to 75% on ABHD6 and less than 25% at FAAH.

`Cn1ncc2cc(C(c3ccc4c(cnn4C)c3)N3CCN(C(=O)ON4C(=O)CCC4=O)CC3)ccc21` [Example 154, 2,5-dioxopyrrolidin-1-yl 4-(bis(1-methyl-1H-indazol-5-yl)methyl)piperazine-1-carboxylate]: the inhibition at 1 µM was 25 to 75% at MAGL, 25 to 75% on ABHD6 and less than 25% on FAAH.

Consider `Cn1ncc(Br)c1CN1CCN(C(=O)ON2C(=O)CCC2=O)CC1` [Example 135, 2,5-Dioxopyrrolidin-1-yl 4-((4-bromo-1-methyl-1H-pyrazol-5-yl)methyl)piperazine-1-carboxylate], for which the values for the inhibition at 1 µM at MAGL, on ABHD6 and at FAAH were 25 to 75%, 25 to 75% and less than 25%, respectively.

As to `O=C(ON1C(=O)CCC1=O)N1CCN(Cc2ccc(-c3ccccc3)cc2F)CC1` [Example 164, 2,5-Dioxopyrrolidin-1-yl 4-[(2-fluoro-4-phenylphenyl)methyl]piperazine-1-carboxylate], the inhibition at 1 µM on MAGL is greater than 75%; at ABHD6, greater than 75%; at FAAH it was less than 25%.

Take `Cc1c(CN2CCN(C(=O)ON3C(=O)CCC3=O)CC2)cccc1C(=O)N1CCOCC1` [Example 205, 2,5-Dioxopyrrolidin-1-yl 4-{[2-methyl-3-(morpholine-4-carbonyl)phenyl]methyl}piperazine-1-carboxylate]: the figures for the inhibition at 1 µM at MAGL, on ABHD6 and on FAAH were less than 25%, greater than 75% and less than 25%, respectively.

With `CC(C)n1cc(CN2CCN(C(=O)ON3C(=O)CCC3=O)CC2)c(-c2ccccc2)n1` [Example 141, 2,5-Dioxopyrrolidin-1-yl 4-{[3-phenyl-1-(propan-2-yl)-1H-pyrazol-4-yl]methyl}piperazine-1-carboxylate], the figures for the inhibition at 1 µM on MAGL, on ABHD6 and on FAAH were 25 to 75%, 25 to 75% and less than 25%, respectively.

Turning to `O=C(ON1C(=O)CCC1=O)N1CCN(Cc2ccc(Cl)cc2N2CCC2)CC1` [Example 112, 2,5-Dioxopyrrolidin-1-yl 4-{[2-(azetidin-1-yl)-4-chlorophenyl]methyl}piperazine-1-carboxylate], the inhibition at 1 µM on MAGL is greater than 75%; on ABHD6 it was 25 to 75%; on FAAH, less than 25%.

For the compound `CC(=O)N1CCN(C(=O)ON2C(=O)CCC2=O)CC1` [Example 51, 2,5-Dioxopyrrolidin-1-yl 4-acetylpiperazine-1-carboxylate], the inhibition at 10 µM on MAGL, at ABHD6 and on FAAH was less than 25% throughout.

In the case of `O=C(CN1CCC1)N1CCN(C(=O)ON2C(=O)CCC2=O)CC1` [Example 216, 2,5-Dioxopyrrolidin-1-yl 4-[2-(azetidin-1-yl)acetyl]piperazine-1-carboxylate], the inhibition at 10 µM on MAGL, on ABHD6 and on FAAH was less than 25% each time.

Turning to `O=C(ON1C(=O)CCC1=O)N1CCN(Cc2ccc(-c3cccc(F)c3)cc2F)CC1` [Example 162, 2,5-Dioxopyrrolidin-1-yl 4-{[2-fluoro-4-(3-fluorophenyl)phenyl]methyl}piperazine-1-carboxylate], the inhibition at 1 µM is greater than 75% at MAGL, greater than 75% on ABHD6 and less than 25% at FAAH.
